Source: patent publication US20260070944A1, “PEPTIDE PROMOTING TYROSINASE ACTIVITY AND USE THEREOF” (HYSENSBIO CO., LTD, priority 2022, published 2026)
Where no end group is shown, it is not given here.

Test system: B16F10 cells
Assay: MTT assay, cell viability
Type: cell-based
Procedure: A melanocyte (B16F10) cell line was cultured using DMEM containing 10% FBS and 1% penicillin/streptomycin (PS) at 37° C. in a 5% CO2 incubator.
An MTT reagent was used by being diluted in DMEM at a concentration of 0.5 mg/mL.
B16F10 cells were seeded at 230,000 cells/well in a 6-well plate, and cultured at 37° C. in a 5% CO2 incubator for 24 hours. Subsequently, the cells were treated with peptide KH001 (SEQ ID NO: 96) at different concentrations for 72 hours to prepare the cells, and then the MTT reagent was added and allowed to react in a 37° C. incubator for 1 hour under light blocking conditions. After removing the entire medium, the generated formazan was dissolved in DMSO, and then absorbance was measured at 560 nm.
B16F10 cells were treated with the KH001 peptide at different concentrations. After 72 hours after KH001 peptide treatment, cell viability was measured using an MTT assay.

KYKQKRRSYK [KH001, KYKQKRRSYK] was tested, and the “cell viability compared to the control” value (50 μM, 100 μM and 200 μM, 72 hours, MTT) was “no significant difference” and the toxicity (at the predetermined concentrations (50, 100, 200 μM)) was “no toxicity”.
